Earlier results on one compound are cited in publication PMC3293351, “Pharmacokinetics and Excretion Studies on CDRI-85/92, an Antiulcer Proton Pump Inhibitor” (Scientia Pharmaceutica, 2011).

Details of data set [1]: method as in PMID 12563304. Particulars: in rats; cited from earlier work.
The subject of the next data set is gastric proton pump. Particulars: cited from earlier work.

SMILES strings stand for the structures.

Regarding `COc1ccc2[nH]c([S+]([O-])Cc3ncc(C)c(OC)c3C)nc2c1` (centres unmarked) [Omeprazole, reference compound], the half-life result in data set [1] was “less than 5 min”. Moreover, the “Type of proton pump inhibition” value with gastric proton pump is “irreversible proton pump inhibitor”.
